Data as given in US10550130B2, “Benzo-thiazolo-imidazole compounds and uses thereof” (KING SAUD UNIVERSITY, priority 2015, dated 2020).

Assays:
intracellular Notch-1 = test: Immunofluorescence of intracellular Notch-1 in MDA-MB-231 breast cancer cells; format: cell-based; conditions: MDA-MB-231 cells; 0.01, 0.1, 1 or 10 μM
Method: (§1) MDA-MB-231 breast cancer cells were treated either with vehicle (control) or with 0.01 μM, 0.1 μM, 1 μM or 10 μM final concentration of doxorubicin, taxotere or KSA-101696. Then, the cells were cytospun to glass slides by centrifugation at 800 rpm for 3 min. Slides were then air-dried overnight and 4% formaldehyde fixed for 10 min. For staining, the cell membrane was permeabilized with 0.5% triton-X (Sigma) followed by overnight incubation with primary antibodies (anti-Numb, Abcam) and (anti-intracellular Notch-1, Cell Signalling) at 1:100. Cells were washed and stained with AlexaFluor goat anti-rabbit IgG 488 (Invitrogenat) 1:400 for 30 minutes. 300 nM DAPI (Invitrogen, Carlsbad, Calif., USA) was added for 10 minutes to counterstain the nuclei. Slides were mounted and immunofluorescence was visualized using BD Pathway 855 microscope.
(§2) Numb exerts its functional role on cell fate decisions by antagonizing Notch signaling activities. The molecular mechanisms underlying this relationship appear to rely on the ubiquitination of the membrane bound Notch-1 receptor and the subsequent degradation of its NICD (Notch intracellular domain) following receptor activation.

Numb = test: Immunofluorescence of Numb in MDA-MB-231 breast cancer cells; format: cell-based; conditions: MDA-MB-231 cells; 0.01, 0.1, 1 or 10 μM
Method: as §1, §2

[1] = Determination of LD50 value; conditions: male, Swiss Webster Albino, mouse, in vivo, ip
Method: Swiss Webster Albino mice were housed in groups of 2 or 4 in elevated steel wire-mesh cages in a controlled room maintained at a temperature of 22±2° C., relative humidity of 50±10% and a 12 h light-dark cycle. Rodent diet chow (feed) provided by Grain Silos Flour Mills Organization, Riyadh, Saudi Arabia, and tap water for drinking were made available ad lib.
Male mice were divided into various groups (n=10 animals per group). Each group was administered a different dose of the respective compound via the intraperitoneal (i.p.) route. The dose range used was 100-5000 mg/kg.
During the observation periods there was a continuous record of any behavioral changes and clinical symptoms that caused by effects on the central and autonomic nervous systems, the respiratory and the cardiovascular systems or any other action on the gastrointestinal tract, the renal systems, eye, skin, skeletal muscles etc.
During the 72 hour observation period the number of animals that died in every group was recorded. The percentage of death calculated and converted to probits to calculate the LD50 value for each compound in mg/kg. The LD50 value reported in this study provided compounds in their liquid form in the provided concentrations.

Compound	Notch self-renewal pathway (intracellular Notch-1)	Numb expression (immunofluorescence microscopy) (Numb)	LD50 at 72 h [1] [mg/kg]
COc1cccc2c1C(=O)c1c(O)c3c(c(O)c1C2=O)C[C@@](O)(C(=O)CO)C[C@@H]3O[C@H]1C[C@H](N)[C@H](O)[C@H](C)O1 [Doxorubicin]	activated the Notch self-renewal pathway	inhibited Numb expression	60
CC(=O)O[C@@]12CO[C@@H]1C[C@H](O)[C@@]1(C)C(=O)[C@H](O)C3=C(C)[C@@H](OC(=O)[C@H](O)[C@@H](NC(=O)OC(C)(C)C)c4ccccc4)C[C@@](O)([C@@H](OC(=O)c4ccccc4)[C@H]21)C3(C)C [taxotere]	activated the Notch self-renewal pathway	inhibited Numb expression	
